Data on 14 compounds can be found in patent publication US8063221B2, “Aminoquinolones as GSK-3 inhibitors” (Kyorin Pharmaceutical Co., Ltd., priority 2006, dated 2011).

Structures are written as SMILES. Values after ≈ are worked out from the molar mass of the structure shown.

System in one assay: not listed separately
As to the kind of experiment: Animal Study 2 (oral glucose tolerance test). Also on record: species or system Crlj:CD1 (ICR) mice. Conditions: Mus musculus; Table 2; 300 mg/kg oral, ICR mice; plasma glucose 0.5 and 1 hr after glucose load vs vehicle; read-out: In vivo studies 300 mg/kg (oral glucose tolerance test, % decrease). The source says: The results of in vivo oral glucose tolerance test (Example 39), expressed as % decrease, are presented as follows: […]
Animal Study 2 (Oral Glucose Tolerance Test)
Male Crlj:CD1 (ICR) mice were obtained from Charles River Laboratries Japan (Yokohama, Japan). All mice were given a standard diet (Clea Japan, Tokyo, Japan) and tap water ad libitum. All institutional guidelines for animal care and use were applied in this study. Test compounds were suspended in 0.3% carboxymethyl-cellulose sodium salt (CMC-Na; Sigma, St. Louis, Mo.). After fasting for 15-17 hr, the test compound (300 mg/kg) or vehicle (0.3% CMC-Na) was orally administered to 7-week-old ICR mice. Glucose solution (5 g/kg) was orally administered at 30 min after test compound treatment. Blood samples were collected from tail vein using capillary tubes containing EDTA·2K before test compound treatment, and at 0, 0.5, 1, and 2 hr after glucose load. The blood samples were centrifuged at 2,500×g for 5 min and separated plasma was kept on ice and analyzed in the same day. Plasma glucose levels were determined using the glucose C II-test (Wako Pure Chemical Industries, Osaka, Japan).
The sum of plasma glucose levels at 0.5 and 1 hr after glucose load was compared to that of vehicle treatment, and results were presented as percent decrease.
With `C[C@H]1COc2c(NCCCc3ccccn3)c(F)c(N)c3c(=O)c(C#N)cn1c23` [Example 115], the inhibition in vivo at 300 mg/kg is less than 5%.
On the same count and under the same terms, as for `C[C@H]1COc2c(NCCS(=O)(=O)N3CCCCC3)c(F)c(N)c3c(=O)c(C(=O)O)cn1c23` [Example 112], the figure is less than 5%.
Regarding `CC1(C)COc2c(NCCCn3ccnc3)c(F)c(N)c3c(=O)c(C(=O)O)cn1c23` [compound 33], the inhibition in vivo at 300 mg/kg is greater than 20%.
Turning to `C[C@H]1COc2c(NCCCc3ccc(F)cc3)c(F)c(N)c3c(=O)c(C(=O)O)cn1c23` [compound 72], the inhibition in vivo at 300 mg/kg is greater than 20%.
The same measure, in the same setting: as for `C[C@H]1COc2c(NCCCn3ccnc3)c(F)c(N)c3c(=O)c(C#N)cn1c23` [Example 114], the figure is greater than 20%.
Same read-out and setting: the value for `C[C@H]1COc2c(NCCCN3CCCc4ccccc43)c(F)c(N)c3c(=O)c(C(=O)O)cn1c23` [compound 67] was 10 to 20%; that for `C[C@H]1COc2c(NCCCc3ccccn3)c(F)c(N)c3c(=O)c(C(=O)O)cn1c23` [compound 70] was greater than 20%.
The same measure, in the same setting: as for `Cc1nn(C)c(C)c1CCCNc1c(F)c(N)c2c(=O)c(C(=O)O)cn3c2c1OC[C@@H]3C` [Example 93], the figure is greater than 20%; as for `C[C@H]1COc2c(NCCCNC(=O)C34CC5CC(CC(C5)C3)C4)c(F)c(N)c3c(=O)c(C(=O)O)cn1c23` [compound 80], 5 to 10%; as for `C[C@H]1COc2c(NCCCn3ccnc3)c(F)c(N)c3c(=O)c(C(N)=O)cn1c23` [Example 107], 10 to 20%.
`Nc1c(F)c(NCCNc2ccccn2)cc2c1c(=O)c(C(=O)O)cn2CCc1ccccc1` [Example 119]: the inhibition in vivo at 300 mg/kg was less than 5%.
Same read-out and setting: as for `CC1(C)CCOc2c(NCCNc3ccccn3)c(F)c(N)c3c(=O)c(C(=O)O)cn1c23` [Example 139], the figure is greater than 20%.
Consider `C[C@H]1COc2c(NCCNc3ccccn3)c(F)c(N)c3c(=O)c(C(N)=O)cn1c23` [Example 109], for which the inhibition in vivo at 300 mg/kg was in the range of 10 to 20%.

For a further assay, the target named is T1, recombinant full-length human GSK3β (Homo sapiens, UniProt P49841).
T1 construct: recombinant full-length human GSK3β (Upstate); purchased Upstate
T1 sequence (P49841 whole entry): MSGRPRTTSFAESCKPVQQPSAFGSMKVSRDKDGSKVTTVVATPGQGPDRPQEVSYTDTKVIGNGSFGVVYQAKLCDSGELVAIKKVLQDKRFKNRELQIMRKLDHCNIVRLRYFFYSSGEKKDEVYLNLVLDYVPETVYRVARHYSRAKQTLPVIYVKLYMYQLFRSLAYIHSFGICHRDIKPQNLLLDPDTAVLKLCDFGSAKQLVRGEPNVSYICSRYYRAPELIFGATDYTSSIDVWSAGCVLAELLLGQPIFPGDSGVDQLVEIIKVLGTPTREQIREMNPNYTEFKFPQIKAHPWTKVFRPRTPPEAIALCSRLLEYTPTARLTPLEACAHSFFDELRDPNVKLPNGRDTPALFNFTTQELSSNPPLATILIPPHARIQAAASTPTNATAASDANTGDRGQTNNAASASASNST
Nature of the assay: Luciferase-coupled cell-free GSK3β kinase assay. Format: biochemical. Conditions: Table 2. Summed up:
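GSK3β, 10-25 ng, was incubated with compound for 1 h at 30° C in MOPS pH 7.0 buffer containing 62.5 μM phospho-glycogen synthase peptide-2 and 5 μM ATP. Remaining ATP was read by KinaseGlo luminescence, and IC50 was fitted from % inhibition relative to maximal inhibition.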
Consider `C[C@H]1COc2c(NCCCc3ccccn3)c(F)c(N)c3c(=O)c(C#N)cn1c23` [Example 115], for which the IC50 is less than 100 nM.
As for `C[C@H]1COc2c(NCCS(=O)(=O)N3CCCCC3)c(F)c(N)c3c(=O)c(C(=O)O)cn1c23` [Example 112], the IC50 was less than 100 nM.
Same read-out and setting: the value for `CC1(C)COc2c(NCCCn3ccnc3)c(F)c(N)c3c(=O)c(C(=O)O)cn1c23` [compound 33] was 100 to 500 nM; that for `C[C@H]1COc2c(NCCCc3ccc(F)cc3)c(F)c(N)c3c(=O)c(C(=O)O)cn1c23` [compound 72] was less than 100 nM.
Still for that read-out and setting: the value for `C[C@H]1COc2c(NCCCn3ccnc3)c(F)c(N)c3c(=O)c(C#N)cn1c23` [Example 114] was less than 100 nM.
On the same count and under the same terms, as for `C[C@H]1COc2c(NCCCN3CCCc4ccccc43)c(F)c(N)c3c(=O)c(C(=O)O)cn1c23` [compound 67], the figure is less than 100 nM; as for `C[C@H]1COc2c(NCCCc3ccccn3)c(F)c(N)c3c(=O)c(C(=O)O)cn1c23` [compound 70], less than 100 nM.
Take `C[C@H]1COc2c(NCCCNC(=O)C34CC5CC(CC(C5)C3)C4)c(F)c(N)c3c(=O)c(C(=O)O)cn1c23` [compound 80]: the IC50 is less than 100 nM.
As to `C[C@H]1COc2c(NCCCn3ccnc3)c(F)c(N)c3c(=O)c(C(N)=O)cn1c23` [Example 107], the IC50 lay in the range of 100 to 500 nM.
Turning to `Nc1c(F)c(NCCNc2ccccn2)cc2c1c(=O)c(C(=O)O)cn2CCc1ccccc1` [Example 119], the concentration for half-maximal inhibition (IC50) is less than 100 nM.
With `CC1(C)CCOc2c(NCCNc3ccccn3)c(F)c(N)c3c(=O)c(C(=O)O)cn1c23` [Example 139], the IC50 was in the range of 100 to 500 nM.
Turning to `C[C@H]1COc2c(NCCNc3ccccn3)c(F)c(N)c3c(=O)c(C(N)=O)cn1c23` [Example 109], the 50% inhibitory concentration (IC50) was less than 100 nM.

A further assay has as its system E. coli, ATCC8739. As to the kind of experiment: Antibacterial activity (MIC), E. coli. Format: cell-based. Conditions: Escherichia coli, ATCC8739, Table 2; E. coli ATCC8739; read-out: Antimicrobial MIC [μM] E. Coli. In a few lines: (§1)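 MIC, the lowest compound concentration inhibiting bacterial growth in culture medium, determined by dilution method per CLSI M7-A4 guidance; reported in μM.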
For `CC1(C)COc2c(NCCCn3ccnc3)c(F)c(N)c3c(=O)c(C(=O)O)cn1c23` [compound 33], the MIC is greater than 50 µM.
On the same count and under the same terms, the value for `Nc1c(F)c(NCCNc2ccccn2)cc2c1c(=O)c(C(=O)O)cn2CCc1ccccc1` [Example 119] was 10 to 50 µM (≈ 4.61 to 23.1 µg/mL).
In the case of `CC1(C)CCOc2c(NCCNc3ccccn3)c(F)c(N)c3c(=O)c(C(=O)O)cn1c23` [Example 139], the minimum inhibitory concentration (MIC) was greater than 50 µM.

System in another assay: not listed separately
As to the kind of experiment: Animal Study 1 (blood glucose in db/db mice). Format: in vivo. Conditions: 100 mg/kg orally, 0-6 hr after administration. How it is done:
Animal Study 1 Male obese hyperglycemic mice (db/db) and lean mice (C57BL/6J) were obtained from Charles River Laboratories Japan (Yokohama, Japan). All mice were given a standard diet (Clea Japan, Tokyo, Japan) and tap water ad libitum. All institutional guidelines for animal care and use were applied in this study. Test compounds were suspended in 0.3% carboxymethyl-cellulose sodium salt (CMC-Na; Sigma, St. Louis, Mo.). After fasting for 2 hr, the test compounds (100 mg/kg) were administered orally to 7-week-old db/db mice. Vehicle (0.3% CMC-Na) was administered orally to both 7-week-old db/db mice and lean mice. Blood samples were collected from tail vein using capillary tubes containing EDTA·2K at 0, 0.5, 1, 2, 4, and 6 hr after the administration. The blood samples were centrifuged at 2,500×g for 5 min and separated plasma was kept on ice and analyzed in the same day. Plasma glucose levels were determined using the glucose CII-test (Wako Pure Chemical Industries, Osaka, Japan). CHIR99021 is a selective inhibitor of GSK3 enzyme known in the art (see, Ring D B et al., Selective GSK-3 inhibitors potentiate insulin activation of glucose transport and utilization in vitro and in vivo. Diabetes 2003, 52(3): 588-595).
For `Cc1c[nH]c(-c2cnc(NCCNc3ccc(C#N)cn3)nc2-c2ccc(Cl)cc2Cl)n1` [CHIR99021], the “blood glucose levels (FIG. 1)” value is “drop in blood glucose levels”.

The subject of a further assay is S. aureus Smith. As to the kind of experiment: Antibacterial activity (MIC), S. aureus. Format: cell-based. Conditions: Staphylococcus aureus, Table 2; S. aureus Smith; read-out: Antimicrobial MIC [μM] S. aureus. Summed up: as §1
Take `CC1(C)COc2c(NCCCn3ccnc3)c(F)c(N)c3c(=O)c(C(=O)O)cn1c23` [compound 33]: the minimal inhibitory concentration (MIC) was greater than 50 µM.
Still for that read-out and setting: as for `Nc1c(F)c(NCCNc2ccccn2)cc2c1c(=O)c(C(=O)O)cn2CCc1ccccc1` [Example 119], the figure is 10 to 50 µM (≈ 4.61 to 23.1 µg/mL); as for `CC1(C)CCOc2c(NCCNc3ccccn3)c(F)c(N)c3c(=O)c(C(=O)O)cn1c23` [Example 139], greater than 50 µM.
